Measurements taken from PMC8203924, “Development of a Potent Antimicrobial Peptide With Photodynamic Activity” (Frontiers in Microbiology, 2021).
In brackets after ≈: the same amount, converted by molar mass. Where two headings read alike, the source gives them in different places. Peptide text beside a SMILES is read from it. * marks the point of attachment. X1 = O=C(c1ccc2c3nc4nc(nc5[nH]c(nc6nc(nc([nH]3)c2c1)-c1ccccc1-6)c1ccccc51)-c1ccccc1-4)*

What was measured:
E. coli (ATCC 8739) [1] = format: cell-based, Escherichia coli; conditions: ATCC 8739, 20 h
Procedure: (§1) E. coli (ATCC 8739), S. aureus (ATCC 6538), or MRSA (ATCC 33591) were grown in LB culture medium at 37°C under aerobic conditions overnight (8–12 h) before use.
(§2) Bactericidal kinetics assay was also determined.

S. aureus (ATCC 6538) [2] = format: cell-based, Staphylococcus aureus; conditions: ATCC 6538, 20 h
Procedure: as §1, §2

MRSA (ATCC 33591) [3] = format: cell-based, methicillin-resistant S. aureus; conditions: ATCC 33591, 20 h
Procedure: as §1, §2

E. coli = conditions: 1-MIC, 12 h, OD600 hourly, 37°C
Procedure: (§6) Bactericidal kinetics assay was also determined. Different final concentrations (0, 1/8-, 1/4-, 1/2-, 1-MIC) of the peptides were added to the bioluminescent S. aureus suspension (10^3 CFU/ml). The bacteria were incubated at 37°C and 150 rpm. An aliquot of 100 μl of the suspension was taken out to measure the absorption at 600 nm on microplate reader once an hour for up to 12 h.

S. aureus [4] = conditions: 1-MIC, 12 h, OD600 hourly, 37°C
Procedure: as §6

[5] = mouse, in vivo, iv
Procedure: The blood of mice was diluted 10 times with DMF, immediately after collection, and then centrifuged to get supernatant for further determination. The supernatant was measured by fluorescence spectrophotometer F-4600 (HITACHI, Tokyo, Japan). The fluorescence intensity was recorded. The excitation and emission wavelengths were set at 610 and 680 nm. […] The plasma half-life (t1/2) can be calculated by the following formula:
Here, k represents the slope of fluorescence intensity-log (concentration) regression equation.

S. aureus [6] = system: S. aureus
From the text: Kunming mice (4-week-old, 25 ± 2 g, purchased from Shanghai SLAC Laboratory Animal Co. Ltd., Shanghai, China) were maintained and handled in accordance with the recommendations of the Institutional Animal Care And Use Committee (IACUC). […] Each group had six mice. All groups of mice were allowed free access to water and food throughout the experimental process. In each group, excisional wounds (10 mm × 10 mm) was made on the dorsal surface of the mouse by disinfected scissors to a depth of 2.0 mm. The bottom of the wound was panniculus carnosus with no visible bleeding. An aliquot (50 μl) of mid-log phase S. aureus (10^8 CFU/ml) was then inoculated into each wound of mice. […] The area of the wounds and body weight of mice were measured each day.

[7] = mouse, in vivo, iv; remark: listed apart in the source
Procedure: The mice were sacrificed at 2, 4, 8, 12, 24, 36, 48, and 72 h post-injection, and their primary organs (liver, kidneys, heart, spleen, lung, stomach, intestines) or muscles were collected postmortem. Meanwhile, their blood was collected through enucleation of eyeballs. These samples were then washed with saline and imaged on the three-dimension FMT 2500TM LX (PerkinElmer, Waltham, MA, United States) using the same acquisition settings as the in vivo imaging to quantitate the peptide average concentrations in the samples.

S. aureus (ATCC 6538) [8] = conditions: 2 μM
Procedure: as §1
(§3) Photo-assisted antimicrobial activity assays of the compound peptides against ATCC standard strains were carried out by colony counting method. The agar plates with only bacterial suspension were used as negative control. The peptide and bacterial suspension were incubated together in 96-well microplates first. Under the same conditions, for comparison, the other groups were set without light. After incubation for 40 min at room temperature, aliquots of 100 μl were taken out of the solutions and placed on agar plates at serial dilutions, then incubated at 37°C for 18–24 h. Numbers of colonies were counted, and the antimicrobial rate (R) was calculated: R = (B-A)/B × 100%. Here, A is the bacterial colony number on the agar plates containing various concentrations of the peptides, and B is the colony number for negative control.

E. coli (ATCC 8739) [9] = conditions: 2 μM
Procedure: as §1, §3

MRSA (ATCC 33591) [10] = assay: Photo-assisted antimicrobial activity by colony counting method; format: cell-based, methicillin-resistant S. aureus; conditions: 2 μM, 6 min illumination, 12 J/cm^2, 33.33 mW/cm^2, colony counting, start 10^6 CFU/ml
Procedure: as §1, §3

bioluminescent S. aureus [11] = format: cell-based, Staphylococcus aureus; conditions: for IC50: bioluminescent S. aureus, 680 nm LED 6 min, 12 J/cm^2, 33.33 mW/cm^2, after 10 min incubation, triplicate, mean ± SD, read-out: IC50 against S. aureus upon illumination
Procedure: (§4) Bioluminescent bacteria were grown in Luria-Bertani (LB) culture medium at 37°C under aerobic conditions overnight 8–12 diluted 100 times to 10^6 colony-forming units (CFU)/ml in phosphate buffered saline (PBS) before incubating with the peptides. The peptide or new compounds were first dissolved in PBST (PBS with 0.05% Tween 20) to prepare 1-mM stock solutions, and the solutions were then further diluted up to 100 μM with PBST. The bacterial suspensions were then incubated in 96-well plates with the compound peptides. The luminescence was monitored for 1 h to measure the bacterial viability. The percentage of survived bacteria was determined from the luminescence intensities of the treated group divided by the luminescence signal of the controls.
(§5) For photo-assisted antimicrobial activity measurements against bioluminescent bacteria, we used a procedure similar to as above, but with illumination using LM-LED light (680 nm) for 6 min (light dose of 12 J/cm^2, 33.33 mW/cm^2) after 10 min incubation of the bacterial suspensions and the compound peptides.

in vitro = conditions: human, human embryonic lung fibroblast (HELF) cells
Procedure: The culture medium was used as control. The cells were washed with PBS, then were divided into two groups, and the light group was exposed to 12 J/cm^2 of 680 nm light illumination. After another 12-h incubation, the culture medium was refreshed and 3-(4,5-dimethylthiazol-2-yl)-2,5-diphenyltetrazolium bromide (MTT) was added. After 4-h incubation at 37°C, the absorbance at 490 nm was measured on a multi-mode microplate reader (BioTek Synergy 4). The inhibition rate of cell growth was calculated by the following equation:
Cell viability%=Mean absorbance value of treatment group/Mean absorbance value of control×100%

bioluminescent S. aureus [12] = format: cell-based, Staphylococcus aureus; conditions: without light; for higher efficacy than compound 1 or 2: on both bacterial strains (bioluminescent S. aureus and E. coli); for IC50: bioluminescent S. aureus, 10^6 CFU/ml in PBS, peptides in PBST, luminescence monitored 1 h, triplicate, mean ± SD, read-out: IC50 against S. aureus
From the text: The side chain-protected peptides G3(RW)3, G3(RW)3K5, and G3K5(RW)3 on Wang resin were obtained commercially (GL Biochem Ltd., Shanghai). Beta-carboxy phthalocyanine zinc was developed by us by a method previously reported ([Chen et al., 2006]). Beta-carboxy phthalocyanine (β-PcCOOH) was purified on a silica column with N,N-dimethylformamide (DMF):acetone (3:1) as the second band. All the chemical reagents were analytical grade and used without further purification. Distilled water was used throughout the experiments. E. coli (ATCC 8739), S. aureus (ATCC 6538), and MRSA (ATCC 33591) were acquired from ATCC. Bioluminescent strains of E. coli DH5α were constructed by transformation of plasmid pAKlux2.1, which contained a complete bacterial luciferase operon as described ([Ullah et al., 2018]; [Chen et al., 2019]), and S. aureus Xen29 (NCTC8532) containing a stable copy of the modified Photorhabdus luminescens luxABCDE operon was purchased from Shanghai Biofeng Company.
as §4

bioluminescent E. coli [13] = format: cell-based, Escherichia coli; conditions: 10^6 CFU/ml in PBS, peptides in PBST, luminescence monitored 1 h, without light, triplicate, mean ± SD, read-out: IC50 against E. coli
From the text: The side chain-protected peptides G3(RW)3, G3(RW)3K5, and G3K5(RW)3 on Wang resin were obtained commercially (GL Biochem Ltd., Shanghai). Beta-carboxy phthalocyanine zinc was developed by us by a method previously reported ([Chen et al., 2006]). Beta-carboxy phthalocyanine (β-PcCOOH) was purified on a silica column with N,N-dimethylformamide (DMF):acetone (3:1) as the second band. All the chemical reagents were analytical grade and used without further purification. Distilled water was used throughout the experiments. E. coli (ATCC 8739), S. aureus (ATCC 6538), and MRSA (ATCC 33591) were acquired from ATCC. […]
Bioluminescent bacteria were grown in Luria-Bertani (LB) culture medium at 37°C under aerobic conditions overnight 8–12 diluted 100 times to 10^6 colony-forming units (CFU)/ml in phosphate buffered saline (PBS) before incubating with the peptides. […] The luminescence was monitored for 1 h to measure the bacterial viability. The percentage of survived bacteria was determined from the luminescence intensities of the treated group divided by the luminescence signal of the controls.

bioluminescent E. coli [14] = assay: Photo-assisted antimicrobial activity against bioluminescent bacteria; format: cell-based, Escherichia coli; conditions: 680 nm LED 6 min, 12 J/cm^2, 33.33 mW/cm^2, after 10 min incubation, triplicate, mean ± SD, read-out: IC50 against E. coli upon illumination
Procedure: as §4, §5

[15] = 36-s exposure or 0.60 J/cm^2, 33.33 mW/cm^2
[16] = 6 min illumination, 12 J/cm^2, 33.33 mW/cm^2, colony counting
[17] = 6 min illumination, 12 J/cm^2, 33.33 mW/cm^2, colony counting, start 10^6 CFU/ml

Compound | MIC against E. coli (E. coli (ATCC 8739) [1]) [µM] | MIC against S. aureus (S. aureus (ATCC 6538) [2]) [µM] | MIC against MRSA (MRSA (ATCC 33591) [3]) [µM] | higher efficacy than compound 1 or 2 (bioluminescent S. aureus [12]) | IC50 (bioluminescent E. coli [13]) [µM] | IC50 (bioluminescent S. aureus [11]) [µM] | IC50 (bioluminescent E. coli [14]) [µM] | IC50 (bioluminescent S. aureus [12]) [µM] | also measured
N=C(N)NCCC[C@H](NC(=O)CNC(=O)CNC(=O)CNC(=O)c1ccc2c3nc4nc(nc5[nH]c(nc6nc(nc([nH]3)c2c1)-c1ccccc1-6)c1ccccc51)-c1ccccc1-4)C(=O)N[C@@H](Cc1c[nH]c2ccccc12)C(=O)N[C@@H](CCCNC(=N)N)C(=O)N[C@@H](Cc1c[nH]c2ccccc12)C(=O)N[C@@H](CCCNC(=N)N)C(=O)N[C@@H](Cc1c[nH]c2ccccc12)C(=O)O [Compound 3, PcG3(RW)3] (X1-GGGRWRWRW-OH) | 48.0 (≈ 84.3 µg/mL) | 12.0 (≈ 21.1 µg/mL) | 24.0 (≈ 42.2 µg/mL) |  |  |  |  |  | 
N=C(N)NCCC[C@H](NC(=O)[C@H](Cc1c[nH]c2ccccc12)NC(=O)[C@H](CCCNC(=N)N)NC(=O)[C@H](Cc1c[nH]c2ccccc12)NC(=O)[C@H](CCCNC(=N)N)NC(=O)[C@H](CCCCN)NC(=O)[C@H](CCCCN)NC(=O)[C@H](CCCCN)NC(=O)[C@H](CCCCN)NC(=O)[C@H](CCCCN)NC(=O)CNC(=O)CNC(=O)CNC(=O)c1ccc2c3nc4nc(nc5[nH]c(nc6nc(nc([nH]3)c2c1)-c1ccccc1-6)c1ccccc51)-c1ccccc1-4)C(=O)N[C@@H](Cc1c[nH]c2ccccc12)C(=O)O [Compound 4, PcG3K5(RW)3] (X1-GGGKKKKKRWRWRW-OH) | 16.1 (≈ 38.6 µg/mL) | 8.0 (≈ 19.2 µg/mL) | 16.1 (≈ 38.6 µg/mL) | 2–4 times |  |  |  |  | bacterial proliferation of E. coli at MIC (E. coli): completely stopped; bacterial proliferation of S. aureus at MIC (S. aureus [4]): completely stopped; plasma half-life (t1/2) [5]: 11.09 h; wound recovery with one-time illumination (S. aureus [6]; 20 μM local, one-time 680-nm illumination 12.0 J/cm^2, 33.33 mW/cm^2, vs without illumination): better wound recovery than the ones without illumination at the first 3 days after surgery; wound healing of S. aureus infected excisional wounds (S. aureus [6]; 50 μl of 20 μM local administration, without light, n = 6 per group): promoted wound healing and prevented or alleviated the infection; time to be cleared out of organs [7]: ≤ 72 h; elimination of S. aureus at low dose of light (S. aureus (ATCC 6538) [8]; [15]): ~95%; reduction of S. aureus (S. aureus (ATCC 6538) [8]; [16]): ≤ 99.999%; log reduction of S. aureus (S. aureus (ATCC 6538) [8]; [17]): up to 5 log; elimination of E. coli at low dose of light (E. coli (ATCC 8739) [9]; [15]): about 80%; reduction of E. coli (E. coli (ATCC 8739) [9]; [16]): 99.9%; log reduction of E. coli (E. coli (ATCC 8739) [9]; [17]): 3 log; log reduction of MRSA (MRSA (ATCC 33591) [10]): up to 5 log; increase of inhibitory efficacy upon illumination (bioluminescent S. aureus [11]; red light / LED illumination vs no light, S. aureus and E. coli): ~ 140 fold; viability at 24 h (in vitro): > 90%
N=C(N)NCCC[C@H](NC(=O)CNC(=O)CNC(=O)CNC(=O)c1ccc2c3nc4nc(nc5[nH]c(nc6nc(nc([nH]3)c2c1)-c1ccccc1-6)c1ccccc51)-c1ccccc1-4)C(=O)N[C@@H](Cc1c[nH]c2ccccc12)C(=O)N[C@@H](CCCNC(=N)N)C(=O)N[C@@H](Cc1c[nH]c2ccccc12)C(=O)N[C@@H](CCCNC(=N)N)C(=O)N[C@@H](Cc1c[nH]c2ccccc12)C(=O)N[C@@H](CCCCN)C(=O)N[C@@H](CCCCN)C(=O)N[C@@H](CCCCN)C(=O)N[C@@H](CCCCN)C(=O)N[C@@H](CCCCN)C(=O)O [Compound 5, PcG3(RW)3K5] (X1-GGGRWRWRWKKKKK-OH) | 16.1 (≈ 38.6 µg/mL) | 16.1 (≈ 38.6 µg/mL) | 16.1 (≈ 38.6 µg/mL) | 2–4 times |  |  |  |  | 
H-GGGKKKKKRWRWRW-OH [Compound 1, G3K5(RW)3] | >215.6 | 107.8 | 107.8 |  | 61.8 ± 4.3 | 44.6 ± 4.72 | 59.2 ± 1.97 | 45.6 ± 2.9 | 
H-GGGRWRWRWKKKKK-OH [Compound 2, G3(RW)3K5] | >215.6 | 107.8 | 107.8 |  | 135 ± 25.3 | 71.6 ± 2.82 | 129 ± 30.3 | 68 ± 3.2 | 
